Earlier results in patent US20130102469A1, “Method and compound for removing flora from sewer lines” (Swartz family dba Olvidium, priority 2011, published 2013).

System: tree roots

SMILES: CNC(=S)[S-].[Na+] [Metham Sodium]
- root kill (inside the pipe and outside the pipe where the gas travels): 100%

SMILES: N#Cc1c(Cl)cccc1Cl [Dichlobenil, 2,6 dichlorobenzonitrile]
- distance back from the contact site over which roots are killed (sewer line root control): 1-2 ″

SMILES: c1cc[n+]2c(c1)-c1cccc[n+]1CC2 [Diquat]
- root kill (in words) (sewer line use, roots coated with organic detritus): spotty and inconsistent root kill
